Paper PMC5940854, “Nitrothiophene carboxamides, a novel narrow spectrum antibacterial series: Mechanism of action and Efficacy” (Scientific Reports, 2018)
Values after ≈ are worked out from the molar mass of the structure shown.

Key:
[1] = system: wild-type E. coli CGSC#7636 (BW25113); assay: MIC, wild-type E. coli; assay type: cell-based
Experimental: (§1) The inoculum used for all the experiments is derived from a single seed lot that is maintained as glycerol stocks at −80 °C and are sub cultured on LB plate for isolated colonies. Single colony of each strain is grown in M9 medium. All test compound stocks and dilutions are prepared in DMSO. Serial two-fold dilutions of compounds are prepared separately, with the concentrations ranging from 2 mg/mL to 0.015 mg/mL. To 150 µl (3–7 × 10^5 CFU/ml) of bacterial culture in 96 well microtitre plates, 3 μL compound from each of the dilutions is added to respective wells to obtain final concentrations ranging from 40 µg/mL to 0.3 µg/mL of the test compounds. Media control, culture control and appropriate reference drug controls are included. […] Growth is monitored by checking absorbance at 600 nm (A600). […] The samples from MIC and above concentrations are plated for MBC (Minimum Bactericidal Concentration). The samples are diluted 1:10 and plated on LB agar plates. […] The killing kinetics is determined by enumerating survivors at various time points following compound exposure. E. coli cells (~10^7 CFU/ml; A600 of 0.1) are treated with various concentrations (40 µg/mL to 0.3 µg/mL) of compounds in a 96-well microtitre plate. At various time intervals (0 to 8 h), 30 μl volumes of treated cultures are serially diluted and plated on LB agar plates. […] Data is expressed as the log10 CFU for each drug treatment.

NfsB = target: T1, NfsB (Escherichia coli, UniProt P38489); assay: Nitroreductase activity assay, NfsB; assay type: biochemical, E. coli; settings: 20 μM compound, 40 μM NADH, 70 nM NfsB; slope of initial velocity
T1 construct: His-tag; made in house; host or cells: E. coli BL21(DE3), pET28a (pET-nfsB)
Experimental: Enzyme reducing each of the substrates are measured by monitoring the concomitant oxidation of NADPH by NfsA and NADH by NfsB in a fluorescence based assay. The reduction in fluorescence due to the NADH oxidation (excitation 350 nm, emission 460 nm) and NADPH oxidation (excitation 340 nm, emission 485 nm) is recorded using a TECAN Infinite M200Pro spectrophotometer, in half area solid black microtiter plates. This change in fluorescence directly corelates to the reduction of the nitro-compounds in the reaction. The NfsA assays is performed by initiating the reactions with 40 μM NADPH and 10 nM NfsA in 50 mM Tris-HCl (pH 7.4), 5 mM EDTA against 20 μM substrate (5 μl of compounds/substrate dissolved in 100% DMSO) in a total reaction volume of 100 μl at 25 °C. Similarly, the NfsB assay is also performed by initiating the reactions with 40 μM NADH and 70 nM NfsB in 50 mM Tris-HCl (pH 7.4), 5 mM EDTA against 20 μM substrate in a total reaction volume of 100 μl. […] All reactions are performed in replicates of two or more and the fluorescence measurements are made at 10 second intervals for 5–10 minutes.
Low solubility of the compounds/substrates under the NfsA and NfsB assay conditions precluded determination of their Km. […] The relative fluorescence units (RFU) obtained due to NADPH (excitation 340 nm, emission 485 nm) or NADH (excitation 350 nm, emission 460 nm) oxidation of the first 90 sec reaction is used to compute the slopes using linear regression analysis on GraphPad Prism. Appropriate blank reactions are included to account for background fluorescence/quenching from each of the components such as DMSO, the compound itself and auto-oxidation of NADPH or NADH. Activity of NfsB with a known substrate such as nitrofurantoin is used as a benchmark to plot the relative activities with all the test compounds.

E. coli ∆acrB JW0451-2 = assay: MIC, E. coli ∆acrB; assay type: cell-based; settings: Escherichia coli, read-out: MIC acrB
Experimental: as §1

T1 sequence (P38489 whole entry): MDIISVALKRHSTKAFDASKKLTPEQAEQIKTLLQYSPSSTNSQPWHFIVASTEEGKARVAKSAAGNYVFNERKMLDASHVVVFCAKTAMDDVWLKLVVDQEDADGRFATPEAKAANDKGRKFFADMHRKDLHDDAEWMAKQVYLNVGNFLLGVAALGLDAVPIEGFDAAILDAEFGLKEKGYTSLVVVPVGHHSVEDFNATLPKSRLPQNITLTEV

**Q.** Which “MIC WT” value ([1]; E. coli WT BW25113) does the source give for Cc1sc(NC(=O)c2ccc([N+](=O)[O-])s2)nc1-c1ccccc1 [compound 7, N-(5-Methyl-4-phenylthiazol-2-yl)-5-nitrothiophene-2-carboxamide] here?
**A.** >40 µg/mL

**Q.** And the MIC ([1]; Escherichia coli, BW25113, E. coli WT BW25113, read-out: MIC WT)?
**A.** > 40 µg/mL

**Q.** And the “NfsB activity (rate of compound conversion)” value (NfsB)?
**A.** 6.17 µM/min

**Q.** And the MIC (E. coli ∆acrB JW0451-2)?
**A.** 1.25 µg/mL (≈ 3.62 µM)
